Laboratory results taken from patent US5817826A, “Oxazolinone derivatives having cytosolic phospholipase A2 inhibitory activity” (Shionogi & Co., Ltd., priority 1993, dated 1998).

Key:
cytosolic PLA2 = biological target: T1, cytosolic PLA2 (Homo sapiens, UniProt P47712); experiment: Cytosolic PLA2 inhibition activity (sonicated liposomes with 1-palmitoyl-2-[14C]arachidonyl-sn-glycero-3-phosphocholine); type: biochemical; conditions: for IC50: 2 μM radiolabeled phosphatidylcholine liposomes, 1 mM CaCl2, pH 7.4; for inhibition at 2 µM: compound at 2 μM, relative to enzyme control
T1 sequence (P47712 1-749): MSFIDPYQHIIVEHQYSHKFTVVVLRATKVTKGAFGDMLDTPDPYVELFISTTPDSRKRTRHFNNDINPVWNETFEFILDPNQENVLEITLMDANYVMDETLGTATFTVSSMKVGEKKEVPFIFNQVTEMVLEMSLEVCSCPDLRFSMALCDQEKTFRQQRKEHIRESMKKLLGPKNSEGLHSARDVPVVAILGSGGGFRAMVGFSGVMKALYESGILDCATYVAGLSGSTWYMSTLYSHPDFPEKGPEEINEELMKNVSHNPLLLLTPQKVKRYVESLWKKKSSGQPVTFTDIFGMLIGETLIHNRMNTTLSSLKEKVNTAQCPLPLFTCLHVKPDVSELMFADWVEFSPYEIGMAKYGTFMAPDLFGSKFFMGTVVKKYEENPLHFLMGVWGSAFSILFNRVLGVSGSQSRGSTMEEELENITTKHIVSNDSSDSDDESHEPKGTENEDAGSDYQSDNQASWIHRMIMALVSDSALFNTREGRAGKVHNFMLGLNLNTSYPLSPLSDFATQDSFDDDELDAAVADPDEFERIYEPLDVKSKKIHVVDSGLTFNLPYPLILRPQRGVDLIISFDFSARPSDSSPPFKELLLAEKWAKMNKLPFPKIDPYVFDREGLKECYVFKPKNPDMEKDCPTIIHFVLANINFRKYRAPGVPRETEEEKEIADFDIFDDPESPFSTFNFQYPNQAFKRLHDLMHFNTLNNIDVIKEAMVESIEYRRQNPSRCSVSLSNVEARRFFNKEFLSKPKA
Experimental: Taking the above matter into consideration, the compounds of the present invention were evaluated for their effect on cytosolic PLA2 activity as described in published literature [Kramer, R. M., Robers, E. F., Manetta, J. and Putanam, J. E. et al., J. Biol. Chem. 268 (8): 5268-5272, 1991]. Briefly, PLA2 activity was assayed using sonicated liposomes containing 1-palmitoyl-2-[^14 C]arachidonyl-sn-glycero-3-phosphocholine and sn-1,2-dioleoyl glycerol at a molar ratio of 2:1. The assay mixture contained 1 mM CaCl2, 2 mM 2-mercaptoethanol, 150 mM NaCl, 50 mM Hepes, pH 7.4, and 0.1 mg/ml BSA. The substrate consisted of 2 μM radiolabeled phosphatidycholine liposomes containing 1 μM dioleoyl glycerol.
The amount of released fatty acids in the reaction as mentioned above was quantitated by a liquid scintillation counter. Separately, the same assay was performed except that the compound of the present invention was not added to serve as the enzyme control. The inhibitioory activity was expressed as a percent (%) of PLA2 activity in the enzyme control, and thereby 50% inhibition concentration was calculated.

[1] = hygroscopicity (printed with the elemental analysis); type: physicochemical; conditions: amorphous form

| SMILES | IC50 (cytosolic PLA2) [µM] | inhibition at 2 µM (cytosolic PLA2) [%] | hygroscopicity [1] [µg/min] |
| --- | --- | --- | --- |
| C#CCn1c(-c2ccccc2)c(-c2ccccc2)oc1=O [Compound 0062, 3-(2-propynyl)-4,5-diphenyl-oxazol-2-one] | 50 | – | – |
| CC(C)=CCC/C(C)=C/CN1C(=O)O[C@@H](c2ccccc2)[C@@H]1c1ccccc1 [Compound 0288] | 2 | 50 | – |
| CC(C)=CCC/C(C)=C/CN1C(=O)O[C@H](c2ccccc2)[C@@H]1c1ccccc1 [Compound 0169] | 85 | – | – |
| CC(C)=CCC/C(C)=C\CN1C(=O)O[C@@H](c2ccccc2)[C@@H]1c1ccccc1 [Compound 0313] | ~50 | 13 | – |
| O=C1O[C@H](c2ccccc2)[C@H](c2ccccc2)N1Cc1ccc(Cl)s1 [Compound 0199] | 32 | 32 | – |
| CC(C)=CCC[C@@H](C)CCN1C(=O)O[C@@H](c2ccccc2)[C@@H]1c1ccccc1 [Compound 0346] | 3 | 47 | – |
| O=c1oc(-c2ccccc2)c(-c2ccccc2)n1CCCCOc1ccccc1 [Compound 0090] | 65 | 14 | – |
| Cn1c(-c2ccccc2)c(-c2ccccc2)oc1=O [Compound 0002] | 68 | – | – |
| O=C1O[C@H](c2ccccc2)[C@@H](c2ccccc2)N1Cc1ccc(Cl)s1 [Compound 0246] | 50 | 20 | – |
| CC(C)=CCC[C@H](C)CCN1C(=O)O[C@@H](c2ccccc2)[C@@H]1c1ccccc1 [Compound 0347] | 7.4 | 33 | – |
| O=c1oc(-c2ccccc2)c(-c2ccccc2)n1CCCc1ccccc1 [Compound 0092] | 8.3 | 28 | – |
| CCCCn1c(-c2ccccc2)c(-c2ccccc2)oc1=O [Compound 0044] | 54 | 19 | – |
| O=C1O[C@H](c2ccccc2)[C@@H](c2ccccc2)N1CCCCc1ccccc1 [Compound 0247] | 10 | 23 | – |
| O=c1oc(-c2ccccc2)c(-c2ccccc2)n1S(=O)(=O)c1ccc2ccccc2c1 [Compound 0067] | > 50 | – | – |
| O=c1oc(-c2ccccc2)c(-c2ccccc2)n1CCc1ccccc1 [Compound 0075, 4,5-Diphenyl-3-N-phenylethyl-3-oxazolin-2-one] | 14 | 21 | – |
| O=C(O)c1ccc(-c2oc(=O)n(Cc3ccccc3)c2-c2ccc(C(=O)O)cc2)cc1 [Compound 0054, 3-Benzyl-4,5-bis-(4-hydroxycarbonylphenyl)-3-oxazolin-2-one] | 124 | – | – |
| CC(C)=CCC/C(C)=C\CN1C(=O)O[C@H](c2ccccc2)[C@H]1c1ccccc1 [Compound 0296] | 11 | 21 | – |
| CC(C)=CCC/C(C)=C/CN1C(=O)O[C@@H](c2ccccc2)[C@H]1c1ccccc1 [Compound 0182] | 66 | – | – |
| O=c1[nH]c(-c2ccccc2)c(-c2ccc(S(=O)(=O)NCCC[n+]3ccccc3)cc2)o1 [Compound 0028] | 103 | – | – |
| CC(C)=CCC/C(C)=C/CC/C(C)=C/Cn1c(-c2ccccc2)c(-c2ccccc2)oc1=O [Compound 0069] | 153 | – | – |
| O=C1O[C@@H](c2ccccc2)[C@H](c2ccccc2)N1CCCCc1ccccc1 [Compound 0289] | 6.6 | 36 | – |
| CC(C)=CCn1cc(C(c2ccccc2)c2ccccc2)oc1=O [Compound 0155] | 57 | – | – |

The remaining compounds from weak to strong by IC50 (cytosolic PLA2), led by results:

| IC50 (cytosolic PLA2) [µM] | inhibition at 2 µM (cytosolic PLA2) [%] | hygroscopicity [1] [µg/min] | SMILES |
| --- | --- | --- | --- |
| 250 | – | – | Cc1noc(C)c1Cn1c(-c2ccccc2)c(-c2ccccc2)oc1=O [Compound 0109] |
| 220 | – | – | O=c1[nH]cc(C(c2ccccc2)c2ccccc2)o1 [Compound 0142] |
| 218 | – | – | COC(=O)c1c(-c2ccccc2)oc(=O)n1Cc1ccccc1 [Compound 0079] |
| 207 | – | – | CN1CCN(S(=O)(=O)c2ccc(-c3oc(=O)[nH]c3-c3ccccc3)cc2)CC1 [Compound 0037] |
| 126 | – | – | O=c1oc(C(c2ccccc2)c2ccccc2)cn1CCCOc1ccc(C(F)(F)F)cc1 [Compound 0153] |
| 120 | – | – | CC(C)=CCC/C(C)=C/Cn1cc(C(c2ccccc2)c2ccccc2)oc1=O [Compound 0156] |
| 105 | 11 | – | O=c1oc(-c2ccccc2)c(-c2ccccc2)n1Cc1ccccn1 [Compound 0091, 3-(2'-Pyridylmethyl)-4,5-diphenyl-oxazol-2-one] |
| 103 | – | 5 | O=C(NCCN1CCCCC1)c1[nH]c(=O)oc1-c1ccccc1 [Compound 0030] |
| 103 | – | – | O=C(O)c1[nH]c(=O)oc1-c1ccccc1 [Compound 0029] |
| 101 | – | – | O=C1O[C@@H](c2ccccc2)[C@@H](c2ccccc2)N1Cc1cccc(F)c1 [Compound 0181] |
| 90 | 22 | – | CC(C)=CCC/C(C)=C/CN1C(=O)OC[C@@H]1Cc1ccccc1 [Compound 0315] |
| 89 | – | – | CC(C)=CCn1cc(C(c2ccccc2)(c2ccccc2)c2ccccc2)oc1=O [Compound 0140] |
| 66 | – | – | O=C1O[C@H](c2ccccc2)[C@H](c2ccccc2)N1Cc1cccc(F)c1 [Compound 0168] |
| 59 | – | – | O=c1oc(-c2ccccc2)c(-c2ccccc2)n1CCCCc1ccccc1 [Compound 0108] |
| 52 | – | – | O=C(Cn1c(-c2ccccc2)c(-c2ccccc2)oc1=O)OC(c1ccccc1)c1ccccc1 [Compound 0003] |
| 50 | 18 | – | CC(C)=CCC/C(C)=C/CC/C(C)=C/CN1C(=O)O[C@H](c2ccccc2)[C@H]1c1ccccc1 [Compound 0303] |
| 50 | – | – | O=c1oc(-c2ccccc2)cn1Cc1ccccc1 [Compound 0073, 3-Benzyl-5-phenyl-4-oxazolin-2-one] |
| 43 | 21 | – | O=C1O[C@H](c2ccccc2)[C@@H](c2ccccc2)N1Cc1cccc(F)c1 [Compound 0212] |
| 42 | 12 | – | O=c1oc(-c2ccccc2)c(-c2ccccc2)n1COCc1ccccc1 [Compound 0099] |
| 35 | 26 | – | CC(C)=CCC/C(C)=C/Cn1cc(-c2ccccc2)oc1=O [Compound 0095] |
| 35 | 17 | – | O=c1oc(-c2ccccc2)c(-c2ccccc2)n1Cc1ccccc1F [Compound 0047, 3-(2-Fluorobenzyl)-4,5-diphenyl-oxazol-2-one] |
| 28 | 48 | – | O=c1oc(-c2ccccc2)cn1C(c1ccccc1)c1ccccc1 [Compound 0097] |
| 17 | – | – | O=c1oc(-c2ccccc2)c(-c2ccccc2)n1Cc1ccc(F)cc1 [Compound 0048, 3-(4-Fluorobenzyl)-4,5-diphenyl-oxazol-2-one] |
| 13 | 18 | – | CC(C)=CCn1c(-c2ccccc2)c(-c2ccccc2)oc1=O [Compound 0071] |
| 9.3 | 24 | – | CC(C)=CCC/C(C)=C/CN1C(=O)O[C@H](c2ccccc2)[C@H]1c1ccccc1 [Compound 0213] |
| 8.7 | 32 | – | CC(C)=CCC/C(C)=C/CN1C(=O)O[C@@H](c2cccs2)[C@@H]1c1ccccc1 [Compound 0325] |
| 8.3 | 19 | – | O=c1oc(-c2ccccc2)c(-c2ccccc2)n1Cc1ccc(Cl)s1 [Compound 0086] |
| 6.2 | 24 | – | O=c1oc(-c2ccccc2)c(-c2ccccc2)n1Cc1cccc(F)c1 [Compound 0039, 3-(3-Fluorobenzyl)-4,5-diphenyl-oxazol-2-one] |
| 6 | 34 | – | O=c1oc(-c2ccccc2)c(-c2ccccc2)n1Cc1ccccc1 [Compound 0001] |
| 4.3 | 46 | – | CC(C)=CCC/C(C)=C/Cn1c(-c2ccccc2)c(-c2ccccc2)oc1=O [Compound 0070] |
